This is an account of results in patent US20080181866A1, “Amido Anti-viral Compounds” (Genelabs Technologies, Inc., priority 2006, published 2008).

The assay deals with HCV replication. The experiment in a line: HCV replicon assay (luciferase) in ET (Huh-lucubineo-ET) cell line. Conditions: Hepatitis C virus, tested at 5 μM; ET replicon cells; luciferase activity measured 48-72 hours later; relative to no compound control. The class given is cell-based. The protocol:
A cell line, ET (Huh-lucubineo-ET) was used for screening of compounds of the present invention for inhibiting HCV replication. The ET cell line was stably transfected with RNA transcripts harboring a I389luc-ubi-neo/NS3-3′/ET; replicon with firefly luciferase-ubiquitin-neomycin phosphotransferase fusion protein and EMCV-IRES driven NS3-5B polyprotein containing the cell culture adaptive mutations (E1202G; T12801; K1846T) (Krieger at al, 2001 and unpublished). The ET cells were grown in DMEM (Dulbeco's Modified Eagle's Medium), supplemented with 10% fetal calf serum, 2 mM Glutamine, Penicillin (100 IU/mL)/Streptomycin (100 μg/mL), 1× nonessential amino acids, and 250 μg/mL G418 (“Geneticin”). They were all available through Life Technologies (Bethesda, Md.). The cells were plated at 0.5-1.0×10^4 cells/well in the 96 well plates and incubated for 24 hrs before adding testing compounds. Then the compounds were added to the cells to achieve a final concentration of 0.1 nM to 50 μM and a final DMSO concentration of 0.5%. Luciferase activity were measured 48-72 hours later by adding a lysis buffer and the substrate (Catalog number Glo-lysis buffer E2661 and Bright-Glo luciferase system E2620 Promega, Madison, Wis.). Cells should not be too confluent during the assay. Percent inhibition of replication was plotted relative to no compound control. Under the same condition, cytotoxicity of the compounds was determined using cell proliferation reagent, WST-1 (Roche, Germany). The compounds showing antiviral activities, but no significant cytotoxicities were chosen to determine EC50 and TC50. For these determinations, a 10 point 2-fold serial dilution for each compound was used, which spans a concentration range of 1000 fold. EC50 and similarly TC50 values were calculated by fitting % inhibition at each concentration to the following equation:
% inhibition=100%/[(IC50/[I])^b+1]
where b is Hill's coefficient.
In some preferred embodiments compounds of Formula I will have a % inhibition of at least 20% when tested at 5 μM. In other embodiments the compounds of Formula I will have a % inhibition of at least 50% when tested at 5 μM.
In turn, `O=C(NC1CC1)c1ccc(-c2csc(NC(=O)[C@@H]3CC[C@H](c4ccccc4)N3C(=O)OCc3ccccc3)n2)cc1` [Compound 7052, (2S,5R)-2-[4-(4-Cyclopropylcarbamoyl-phenyl)-thiazol-2-ylcarbamoyl]-5-phenyl-pyrrolidine-1-carboxylic acid benzyl ester] returned an inhibition at 5 µM of 98.9%.
For the molecule `CC(=O)c1ccc(C2SC[C@@H](C(=O)Nc3nc(-c4ccc(C(=O)NC5CC5)cc4)cs3)N2C(=O)OCc2ccccc2)cc1` (mixture of isomers) [Compound 7109, 2-(4-Acetyl-phenyl)-4-[4-(4-cyclopropylcarbamoyl-phenyl)-thiazol-2-ylcarbamoyl]-thiazolidine-3-carboxylic acid benzyl ester], testing at 5 µM gave an inhibition of 100%.
With `O=C(NC1CC1)c1ccc(-c2csc(NC(=O)[C@@H]3CSC(C4CCOCC4)N3C(=O)[C@@H]3CCCO3)n2)cc1` (some centres unmarked) [Compound 7069, 3-(Tetrahydro-furan-2-carbonyl)-2-(tetrahydro-pyran-4-yl)-thiazolidine-4-carboxylic acid [4-(4-cyclopropylcarbamoyl-phenyl)-thiazol-2-yl]-amide], testing at 5 µM gave an inhibition of 98.8%.
`O=C(NC1CC1)c1ccc(-c2csc(NC(=O)[C@@H]3CSC(C4CCOC4)N3C(=O)OCc3ccccc3)n2)cc1` (some centres unmarked) [Compound 7122, 4-[4-(4-Cyclopropylcarbamoyl-phenyl)-thiazol-2-ylcarbamoyl]-2-(tetrahydro-furan-3-yl)-thiazolidine-3-carboxylic acid benzyl ester] registered an inhibition at 5 µM of 100%.
`O=C(NC1CC1)c1ccc(-c2csc(NC(=O)[C@@H]3CSC(c4ccncc4F)N3C(=O)OCc3ccccc3)n2)cc1` (mixture of isomers) [Compound 7008, (R)-4-[4-(4-Cyclopropylcarbamoyl-phenyl)-thiazol-2-ylcarbamoyl]-2-(3-fluoro-pyridin-4-yl)-thiazolidine-3-carboxylic acid benzyl ester] came in with an inhibition at 5 µM of 100%.
In the case of `O=C(Cc1ccc(NC(=O)[C@@H]2CSC(c3ccncc3)N2C(=O)OCc2ccccc2)cc1)NCCc1ccccc1` (some centres unmarked) [Compound 7119, 4-[4-(Phenethylcarbamoyl-methyl)-phenylcarbamoyl]-2-pyridin-4-yl-thiazolidine-3-carboxylic acid benzyl ester], the inhibition at 5 µM stood at 1.2%.
With `COC(=O)c1ccc(C2SC[C@@H](C(=O)Nc3nc(-c4ccc(C(=O)NC5CC5)cc4)cs3)N2C(=O)OCc2ccccc2)cc1` (mixture of isomers) [Compound 7051, (R)-4-[4-(4-Cyclopropylcarbamoyl-phenyl)-thiazol-2-ylcarbamoyl]-2-(4-methoxycarbonyl-phenyl)-thiazolidine-3-carboxylic acid benzyl ester] the figure was 99.4%; with `O=C(NCCc1ccccc1)c1ccc(NC(=O)[C@@H]2CSC(c3ccncc3)N2C(=O)OCc2ccccc2)cc1` (stereo in doubt) [Compound 7113, 4-(4-Phenethylcarbamoyl-phenylcarbamoyl)-2-pyridin-4-yl-thiazolidine-3-carboxylic acid benzyl ester], 86.5%; with `CN(C)c1ncc(C2SC[C@@H](C(=O)Nc3nc(-c4ccc(C(=O)NC5CC5)cc4)cs3)N2C(=O)OCc2ccccc2)cn1` (stereo in doubt) [Compound 7131, 4-[4-(4-Cyclopropylcarbamoyl-phenyl)-thiazol-2-ylcarbamoyl]-2-(2-dimethylamino-pyrimidin-5-yl)-thiazolidine-3-carboxylic acid benzyl ester], 100%.
Turning to `O=C(NC1CC1)c1ccc(-c2csc(NC(=O)[C@@H]3CSC(c4ccnc(O)c4)N3C(=O)OCc3ccccc3)n2)cc1` (mixture of isomers) [Compound 7049, (R)-4-[4-(4-Cyclopropylcarbamoyl-phenyl)-thiazol-2-ylcarbamoyl]-2-(2-hydroxy-pyridin-4-yl)-thiazolidine-3-carboxylic acid benzyl ester], the inhibition at 5 µM was 98.8%.
With `O=C(NC1CC1)c1ccc(-c2csc(NC(=O)[C@@H]3CSC(c4cnco4)N3C(=O)OCc3ccccc3)n2)cc1` (mixture of isomers) [Compound 7036, (R)-4-[4-(4-Cyclopropylcarbamoyl-phenyl)-thiazol-2-ylcarbamoyl]-2-oxazol-5-yl-thiazolidine-3-carboxylic acid benzyl ester] the figure was 99.8%; with `CC(C)(C)OC(=O)N1[C@@H](c2ccccc2)CC[C@H]1C(=O)Nc1nc(-c2ccc(C(=O)NC3CC3)cc2)cs1` [Compound 7005, (2S,5R)-2-[4-(4-Cyclopropylcarbamoyl-phenyl)-thiazol-2-ylcarbamoyl]-5-phenyl-pyrrolidine-1-carboxylic acid tert-butyl ester], 97.8%.
As to `O=C(NC1CC1)c1ccc(-c2csc(NC(=O)[C@@H]3CSC(c4ccccn4)N3C(=O)OCc3ccccc3)n2)cc1` (stereo partly drawn) [Compound 7010, (R)-4-[4-(4-Cyclopropylcarbamoyl-phenyl)-thiazol-2-ylcarbamoyl]-2-pyridin-2-yl-thiazolidine-3-carboxylic acid benzyl ester], the inhibition at 5 µM amounted to 98.1%.
`CC(=O)N1CCCC(C2SC[C@@H](C(=O)Nc3nc(-c4ccc(C(=O)NC5CC5)cc4)cs3)N2C(=O)OCc2ccccc2)C1` (mixture of isomers) [Compound 7133, 2-(1-Acetyl-piperidin-3-yl)-4-[4-(4-cyclopropylcarbamoyl-phenyl)-thiazol-2-ylcarbamoyl]-thiazolidine-3-carboxylic acid benzyl ester] came in with an inhibition at 5 µM of 100%.
For the molecule `O=C(NC1CC1)c1ccc(-c2csc(NC(=O)[C@@H]3CSC(c4ccncc4)N3C(=O)OCc3ccccc3)n2)cc1` (mixture of isomers) [Compound 7031, (R)-4-[4-(4-Cyclopropylcarbamoyl-phenyl)-thiazol-2-ylcarbamoyl]-2-pyridin-4-yl-thiazolidine-3-carboxylic acid benzyl ester], the inhibition at 5 µM was found to be 99.8%.
As for `O=C(NC1CC1)c1ccc(-c2csc(NC(=O)C3Cc4ccccc4N3C(=O)OCc3ccccc3)n2)cc1` (centres unmarked) [Compound 7019, 2-[4-(4-Cyclopropylcarbamoyl-phenyl)-thiazol-2-ylcarbamoyl]-2,3-dihydro-indole-1-carboxylic acid benzyl ester], 5 µM produced 98.3% inhibition.
The molecule `O=C(NC1CC1)c1ccc(-c2csc(NC(=O)[C@@H]3CSC(c4ccccc4)N3C(=O)OCc3ccccc3)n2)cc1` (stereo partly drawn) [Compound 7044, (R)-4-[4-(4-Cyclopropylcarbamoyl-phenyl)-thiazol-2-ylcarbamoyl]-2-phenyl-thiazolidine-3-carboxylic acid benzyl ester] had an inhibition at 5 µM of 98%.
For `O=C(NC1CC1)c1ccc(-c2csc(NC(=O)[C@@H]3CSC(c4ccnc(Cl)c4)N3C(=O)OCc3ccccc3)n2)cc1` (mixture of isomers) [Compound 7029, (R)-2-(2-Chloro-pyridin-4-yl)-4-[4-(4-cyclopropylcarbamoyl-phenyl)-thiazol-2-ylcarbamoyl]-thiazolidine-3-carboxylic acid benzyl ester], at 5 µM the inhibition was 99.8%.
With `O=C(NC1CC1)c1ccc(-c2csc(NC(=O)[C@@H]3CSC(Cc4ccccc4)N3C(=O)OCc3ccccc3)n2)cc1` (some centres unmarked) [Compound 7101, 2-Benzyl-4-[4-(4-cyclopropylcarbamoyl-phenyl)-thiazol-2-ylcarbamoyl]-thiazolidine-3-carboxylic acid benzyl ester] the figure was 98.4%; with `O=C(Cc1ccc(NC(=O)[C@@H]2CSC(c3ccncc3)N2C(=O)OCc2ccccc2)cc1)NC1CC1` (some centres unmarked) [Compound 7068, 4-(4-Cyclopropylcarbamoylmethyl-phenylcarbamoyl)-2-pyridin-4-yl-thiazolidine-3-carboxylic acid benzyl ester], 6%.
As for `O=C(NC1CC1)c1ccc(-c2csc(NC(=O)[C@@H]3CSC(C4CCOCC4)N3C(=O)[C@H]3CCCO3)n2)cc1` (some centres unmarked) [Compound 7074, 3-(Tetrahydro-furan-2-carbonyl)-2-(tetrahydro-pyran-4-yl)-thiazolidine-4-carboxylic acid [4-(4-cyclopropylcarbamoyl-phenyl)-thiazol-2-yl]-amide], testing at 5 µM gave an inhibition of 99%.
`CC1(c2ccncc2)SC[C@@H](C(=O)Nc2nc(-c3ccc(C(=O)NC4CC4)cc3)cs2)N1C(=O)OCc1ccccc1` (stereo in doubt) [Compound 7096, 4-[4-(4-Cyclopropylcarbamoyl-phenyl)-thiazol-2-ylcarbamoyl]-2-methyl-2-pyridin-4-yl-thiazolidine-3-carboxylic acid benzyl ester] registered an inhibition at 5 µM of 99.9%.
For the molecule `O=C(NC1CC1)c1ccc(-c2csc(NC(=O)[C@@H]3CC[C@H](c4ccc(CN5CCOCC5)cc4)N3C(=O)OCc3ccccc3)n2)cc1` [Compound 7045, (2S,5R)-2-[4-(4-Cyclopropylcarbamoyl-phenyl)-thiazol-2-ylcarbamoyl]-5-(4-morpholin-4-ylmethyl-phenyl)-pyrrolidine-1-carboxylic acid benzyl ester], the inhibition at 5 µM turned out to be 100%.
